Test results reported in the NIST ThermoML archive (doi:10.1016/j.fluid.2014.09.031).

Test: xn = mol fraction of the nth substance listed
Conditions: 298.15 K, 101 kPa, Liquid, Vibrating tube method

CN1CCCC1=O [N-methylpyrrolidone] + CCCC[NH3+].O=[N+]([O-])[O-]
Conditions	mass density [kg/m3]
x2 = 0	1028.25

CN1CCCC1=O [N-methylpyrrolidone] + CCC[NH3+].O=[N+]([O-])[O-]
Conditions	mass density [kg/m3]
x2 = 0	1028.25

CN1CCCC1=O [N-methylpyrrolidone] + CC[NH3+].O=[N+]([O-])[O-]
Conditions	mass density [kg/m3]
x2 = 0	1028.25

CC[NH3+].O=[N+]([O-])[O-] [ethylammonium nitrate] + CN1CCCC1=O
Conditions	mass density [kg/m3]
x1 = 0.049	1040.83
x1 = 0.138	1059.94
x1 = 0.166	1065.8
x1 = 0.223	1076.59
x1 = 0.242	1080.27
x1 = 0.292	1089.23
x1 = 0.347	1098.75
x1 = 0.413	1109.61
x1 = 0.457	1116.43
x1 = 0.48	1119.62
x1 = 0.54	1129.36
x1 = 0.592	1137.95
x1 = 0.63	1143.72
x1 = 0.684	1153.22
x1 = 0.763	1167.68
x1 = 0.83	1179.62
x1 = 0.915	1195.54
x1 = 0.981	1207.67
x1 = 1	1210.76

CCCC[NH3+].O=[N+]([O-])[O-] [n-butylammonium nitrate] + CN1CCCC1=O
Conditions	mass density [kg/m3]
x1 = 0.048	1036.44
x1 = 0.108	1044.94
x1 = 0.163	1051.72
x1 = 0.267	1062.31
x1 = 0.365	1069.91
x1 = 0.439	1074.93
x1 = 0.538	1080.43
x1 = 0.67	1088.06
x1 = 0.843	1097.2
x1 = 1	1105.49

CCC[NH3+].O=[N+]([O-])[O-] [propylammonium nitrate] + CN1CCCC1=O
Conditions	mass density [kg/m3]
x1 = 0.046	1038.38
x1 = 0.167	1059.42
x1 = 0.202	1064.53
x1 = 0.263	1073.3
x1 = 0.329	1081.53
x1 = 0.406	1090.6
x1 = 0.461	1096.52
x1 = 0.551	1105.72
x1 = 0.582	1108.68
x1 = 0.628	1113.18
x1 = 0.661	1116.42
x1 = 0.721	1122.67
x1 = 0.781	1128.74
x1 = 0.808	1130.96
x1 = 0.862	1136.73
